In patent publication US10544143B2, “4-azaindole compounds” (BRISTOL-MYERS SQUIBB COMPANY, priority 2017, dated 2020):
Read-outs that look alike come from different tables or passages of the source.

Columns and labels:
human TLR8 = human TLR8 (Homo sapiens (Human), UniProt Q9NR97); test: TLR8 inhibition reporter assay (HEK-Blue SEAP); conditions: read-out: TLR8 IC50;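 also: SEAP driven by IFN-β minimal promoter carrying NF-κB and AP-1 sites, compounds dosed 0.05 nM to 50 µM for 22 h, inhibition scaled between agonist-plus-DMSO and reference-inhibitor wells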
human TLR7 = human TLR7 (Homo sapiens (Human), UniProt Q9NYK1); test: TLR7 inhibition reporter assay (HEK-Blue SEAP); type: cell-based
human TLR9 = human TLR9 (Homo sapiens (Human), UniProt Q9NR96); test: TLR9 inhibition reporter assay (HEK-Blue SEAP); conditions: read-out: TLR9 IC50;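 also: SEAP driven by an IFN-β minimal promoter with NF-κB and AP-1 sites, read after 22 h, compounds dosed 0.05 nM–50 µM, inhibition scaled between agonist plus DMSO and reference-inhibitor wells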
[1] = HEK-Blue cells overexpressing human TLR8, SEAP reporter, R848 15.9 μM
[2] = HEK-Blue cells overexpressing human TLR7, SEAP reporter, gardiquimod 7.5 μM
[3] = HEK-Blue cells overexpressing human TLR9, SEAP reporter, ODN2006 5 nM
[4] = HEK-Blue cells overexpressing human TLR8, R848 15.9 μM stimulation, SEAP reporter
[5] = HEK-Blue cells overexpressing human TLR7, gardiquimod 7.5 μM stimulation, SEAP reporter
[6] = HEK-Blue cells overexpressing human TLR9, ODN2006 5 nM stimulation, SEAP reporter
[7] = HEK-Blue human TLR8 cells, R848 15.9 μM
[8] = HEK-Blue human TLR7 cells, gardiquimod 7.5 μM
[9] = HEK-Blue human TLR9 cells, ODN2006 5 nM

human TLR9, sequence (Q9NR96 26-1032): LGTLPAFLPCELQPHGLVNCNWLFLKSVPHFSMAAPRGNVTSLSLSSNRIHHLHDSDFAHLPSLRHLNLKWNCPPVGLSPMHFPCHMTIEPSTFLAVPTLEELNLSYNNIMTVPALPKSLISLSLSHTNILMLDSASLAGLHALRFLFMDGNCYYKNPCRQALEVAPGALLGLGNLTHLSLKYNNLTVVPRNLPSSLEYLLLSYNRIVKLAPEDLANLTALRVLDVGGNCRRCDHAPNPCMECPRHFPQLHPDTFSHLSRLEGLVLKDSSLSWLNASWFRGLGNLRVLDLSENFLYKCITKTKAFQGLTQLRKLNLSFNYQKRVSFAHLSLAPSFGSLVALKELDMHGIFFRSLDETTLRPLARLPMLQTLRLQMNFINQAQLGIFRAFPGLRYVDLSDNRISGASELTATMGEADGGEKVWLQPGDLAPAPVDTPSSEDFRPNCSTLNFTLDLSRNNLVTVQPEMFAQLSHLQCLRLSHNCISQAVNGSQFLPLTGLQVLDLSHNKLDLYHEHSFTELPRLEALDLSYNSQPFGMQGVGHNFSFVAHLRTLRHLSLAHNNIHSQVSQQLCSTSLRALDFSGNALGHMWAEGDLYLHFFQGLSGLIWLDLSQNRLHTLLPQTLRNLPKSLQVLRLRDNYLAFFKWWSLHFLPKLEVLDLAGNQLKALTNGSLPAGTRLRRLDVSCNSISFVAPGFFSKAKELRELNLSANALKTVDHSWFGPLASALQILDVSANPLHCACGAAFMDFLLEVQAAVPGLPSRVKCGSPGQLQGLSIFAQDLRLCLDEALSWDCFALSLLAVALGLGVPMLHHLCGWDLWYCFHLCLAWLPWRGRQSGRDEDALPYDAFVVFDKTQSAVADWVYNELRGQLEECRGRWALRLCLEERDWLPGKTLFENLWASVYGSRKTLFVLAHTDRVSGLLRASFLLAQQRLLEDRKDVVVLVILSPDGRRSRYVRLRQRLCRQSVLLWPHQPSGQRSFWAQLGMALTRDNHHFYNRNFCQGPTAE
human TLR8, sequence (Q9NR97 27-1041): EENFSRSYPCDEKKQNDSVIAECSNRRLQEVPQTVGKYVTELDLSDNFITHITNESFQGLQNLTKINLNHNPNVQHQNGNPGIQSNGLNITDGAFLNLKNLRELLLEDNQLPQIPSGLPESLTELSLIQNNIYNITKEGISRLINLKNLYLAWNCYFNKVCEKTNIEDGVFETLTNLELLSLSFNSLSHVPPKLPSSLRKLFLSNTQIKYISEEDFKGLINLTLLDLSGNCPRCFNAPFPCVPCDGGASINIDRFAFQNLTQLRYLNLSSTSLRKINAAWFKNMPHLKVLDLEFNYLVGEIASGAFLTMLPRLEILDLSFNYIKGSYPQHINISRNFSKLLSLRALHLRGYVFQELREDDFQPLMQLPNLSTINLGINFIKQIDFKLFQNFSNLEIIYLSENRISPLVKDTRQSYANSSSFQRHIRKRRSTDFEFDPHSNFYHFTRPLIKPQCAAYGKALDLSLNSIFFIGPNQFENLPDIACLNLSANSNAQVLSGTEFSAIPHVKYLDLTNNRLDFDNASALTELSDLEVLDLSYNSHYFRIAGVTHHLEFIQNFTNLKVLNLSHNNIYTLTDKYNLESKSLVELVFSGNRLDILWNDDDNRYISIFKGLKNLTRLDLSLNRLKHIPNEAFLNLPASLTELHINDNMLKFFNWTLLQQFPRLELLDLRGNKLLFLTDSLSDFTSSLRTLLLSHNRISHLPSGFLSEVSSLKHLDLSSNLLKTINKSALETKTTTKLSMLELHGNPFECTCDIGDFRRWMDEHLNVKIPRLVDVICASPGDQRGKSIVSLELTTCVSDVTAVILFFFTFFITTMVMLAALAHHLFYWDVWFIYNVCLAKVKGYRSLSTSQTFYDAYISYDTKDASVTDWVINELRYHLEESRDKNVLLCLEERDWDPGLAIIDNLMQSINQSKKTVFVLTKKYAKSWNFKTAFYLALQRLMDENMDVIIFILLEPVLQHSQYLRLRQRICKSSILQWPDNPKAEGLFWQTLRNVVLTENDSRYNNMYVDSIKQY
human TLR7, sequence (Q9NYK1 27-1049): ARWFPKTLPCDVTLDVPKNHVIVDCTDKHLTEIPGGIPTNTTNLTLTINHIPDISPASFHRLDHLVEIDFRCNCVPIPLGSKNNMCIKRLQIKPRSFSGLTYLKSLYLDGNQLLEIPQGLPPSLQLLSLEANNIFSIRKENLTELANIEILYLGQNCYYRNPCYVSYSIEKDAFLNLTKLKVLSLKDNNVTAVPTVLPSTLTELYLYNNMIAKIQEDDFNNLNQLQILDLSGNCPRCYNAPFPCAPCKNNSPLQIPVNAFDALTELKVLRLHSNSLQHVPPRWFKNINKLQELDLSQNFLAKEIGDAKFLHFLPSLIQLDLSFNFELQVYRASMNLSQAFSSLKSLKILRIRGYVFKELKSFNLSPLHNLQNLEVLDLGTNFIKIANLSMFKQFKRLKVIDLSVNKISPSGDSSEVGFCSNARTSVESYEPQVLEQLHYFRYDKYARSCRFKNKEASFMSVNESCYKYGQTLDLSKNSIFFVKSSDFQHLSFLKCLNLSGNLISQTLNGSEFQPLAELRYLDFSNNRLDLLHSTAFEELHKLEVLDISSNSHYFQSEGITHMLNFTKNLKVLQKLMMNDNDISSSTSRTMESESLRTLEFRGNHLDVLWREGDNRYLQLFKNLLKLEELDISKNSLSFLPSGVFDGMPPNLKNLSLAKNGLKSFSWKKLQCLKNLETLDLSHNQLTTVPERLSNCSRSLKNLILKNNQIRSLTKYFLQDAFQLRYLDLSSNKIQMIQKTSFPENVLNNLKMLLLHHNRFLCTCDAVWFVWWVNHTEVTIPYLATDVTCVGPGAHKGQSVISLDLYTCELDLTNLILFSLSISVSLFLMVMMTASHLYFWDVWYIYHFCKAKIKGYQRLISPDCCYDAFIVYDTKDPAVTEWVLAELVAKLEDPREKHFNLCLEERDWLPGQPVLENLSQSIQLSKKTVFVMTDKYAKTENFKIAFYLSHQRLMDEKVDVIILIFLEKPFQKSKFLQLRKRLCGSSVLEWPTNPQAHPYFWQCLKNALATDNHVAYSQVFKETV

SMILES | IC50 (human TLR8; [1]) | IC50 (human TLR7; [2]) | IC50 (human TLR9; [3]) | IC50 (human TLR8; [4]) | IC50 (human TLR7; [5]) | IC50 (human TLR9; [6]) | also measured
Cc1c(-c2[nH]c3ccc(C4CCC(N5CC(S(C)(=O)=O)C5)CC4)nc3c2C(C)C)cn2ncnc2c1C (stereo not drawn) [Example 445] | 3.6 nM | 1.5 nM | 4.89 µM | – | – | – | –
CC(C)c1c(-c2cn(C)c3ncccc23)[nH]c2ccc(C3CCC(NCC(=O)N(C)C)CC3)nc12 (stereo not drawn) [Example 183] | – | – | – | 15 nM | 5.6 nM | 1.03 µM | –
Cc1c(-c2[nH]c3ccc(N4CCN(C(=O)CN5CCC6(COC6)C5)CC4)nc3c2C(C)C)cn2ncnc2c1C [Example 957] | – | – | – | – | – | – | IC50 (human TLR8; [7]): 2.9 nM; IC50 (human TLR7; [8]): 0.92 nM; IC50 (human TLR9; [9]): 24.4 µM
Cc1c(-c2[nH]c3ccc(C4CCC(N(C)C(C)C)CC4)nc3c2C(C)C)cn2ncnc2c1C (stereo not drawn) [Example 1048] | – | – | – | – | – | – | IC50 (human TLR8; [7]): 13 nM; IC50 (human TLR7; [8]): 4.4 nM; IC50 (human TLR9; [9]): 9.83 µM
Cc1c(-c2[nH]c3ccc(N4C[C@@H](C)N(C(=O)CN(C)C(C)(C)C)[C@H](C)C4)nc3c2C(C)C)cn2ncnc2c1C [Example 926] | – | – | – | – | – | – | IC50 (human TLR8; [7]): 3 nM; IC50 (human TLR7; [8]): 3.3 nM; IC50 (human TLR9; [9]): 3.04 µM
COc1cc(-c2[nH]c3ccc(C4CCC(N(C)C)CC4)nc3c2C(C)C)cn2ncnc12 (stereo not drawn) [Example 179] | – | – | – | 7 nM | 0.92 nM | 1.74 µM | –
COc1cc(-c2[nH]c3cc(C)c(C4CCC(N(C)C5COC5)CC4)nc3c2C(C)C)cn2ncnc12 (stereo not drawn) [Example 330] | – | – | – | 4.8 nM | 0.14 nM | 2.97 µM | –
COc1cc(-c2[nH]c3ccc(C4CC(N(C)CCS(C)(=O)=O)C4)nc3c2C(C)C)cn2ncnc12 (stereo not drawn) [Example 640] | 4.9 nM | 4.9 nM | 13.5 µM | – | – | – | –
COc1cc(-c2[nH]c3ccc(C4CCC(N5CCC(F)C5)CC4)nc3c2C(C)C)cn2ncnc12 (stereo not drawn) [Example 1067] | – | – | – | – | – | – | IC50 (human TLR8; [7]): 4.5 nM; IC50 (human TLR7; [8]): 1 nM; IC50 (human TLR9; [9]): 5.4 µM
Cc1c(-c2[nH]c3ccc(N4CC5(CN(C(=O)CCN(C)C)C5)C4)nc3c2C(C)C)cn2ncnc2c1C [Example 1006] | – | – | – | – | – | – | IC50 (human TLR8; [7]): 9.6 nM; IC50 (human TLR7; [8]): 3.6 nM; IC50 (human TLR9; [9]): 0.339 µM
Cc1c(-c2[nH]c3ccc(C4CCC(N(CC#N)CCS(C)(=O)=O)CC4)nc3c2C(C)C)cn2ncnc2c1C (stereo not drawn) [Example 457] | 0.3 nM | 0.32 nM | 0.622 µM | – | – | – | –
CCN1CC2(C1)CN(c1ccc3[nH]c(-c4cn5ncnc5c(C)c4C)c(C(C)C)c3n1)C2 [Example 744, 6-(5-(6-ethyl-2,6-diazaspiro[3.3]heptan-2-yl)-3-isopropyl-1H-pyrrolo[3,2-b]pyridin-2-yl)-7,8-dimethyl-[1,2,4]triazolo[1,5-a]pyridine] | 7.1 nM | 2 nM | 3.06 µM | – | – | – | –
Cc1cc2[nH]c(-c3cc(C)c4ncnn4c3)c(C(C)C)c2nc1C1CCN(C(=O)CN(C)C)CC1 [Example 586] | 98 nM | 0.75 nM | 2.9 µM | – | – | – | –
Cc1c(-c2[nH]c3ccc(N4C[C@H](C)N(CC(N)=O)[C@@H](C)C4)nc3c2C(C)C)cn2ncnc2c1C [Example 759] | 14 nM | 3.8 nM | 38.2 µM | – | – | – | –
Cc1c(-c2[nH]c3ccc(C4CCC(NC5(C(=O)N(C)C)CCCC5)CC4)nc3c2C(C)C)cn2ncnc2c1C (stereo not drawn) [Example 494] | 2.8 nM | 5.2 nM | 14.1 µM | – | – | – | –
Cc1cnc(CNC2CCC(c3ccc4[nH]c(-c5cn6ncnc6c(C)c5C)c(C(C)C)c4n3)CC2)cn1 (stereo not drawn) [Example 359] | – | – | – | 29 nM | 9.1 nM | 4.87 µM | –
Cc1c(-c2[nH]c3ccc(N4CCN(CC(C)(C)O)CC4)nc3c2C(C)C)cn2ncnc2c1C [Example 105, 1-(4-(2-(7,8-dimethyl-[1,2,4]triazolo[1,5-a]pyridin-6-yl)-3-isopropyl-1H-pyrrolo[3,2-b]pyridin-5-yl)piperazin-1-yl)-2-methylpropan-2-ol] | – | – | – | 0.15 nM | 3.9 nM | 9.24 µM | –
Cc1c(-c2[nH]c3ccc(C4CC(N(C)C)C4)nc3c2C(C)C)cn2ncnc2c1C (stereo not drawn) [Example 623] | 2 nM | 1.6 nM | 3.13 µM | – | – | – | –
COc1cc(-c2[nH]c3ccc(N4CCN(CCNS(C)(=O)=O)CC4)nc3c2C(C)C)cn2ncnc12 [Example 134] | – | – | – | 1.1 nM | 3.7 nM | 26.1 µM | –
COc1cc(-c2[nH]c3cc(F)c(C4CCC(N5CC6(COC6)C5)CC4)nc3c2C(C)C)cn2ncnc12 (stereo not drawn) [Example 343] | – | – | – | 0.54 nM | 0.19 nM | 1.25 µM | –
CC(C)c1c(-c2cn(CC#N)c3ncccc23)[nH]c2ccc(C3CCC(NCCS(C)(=O)=O)CC3)nc12 (stereo not drawn) [Example 273] | – | – | – | 66 nM | 75 nM | 1.11 µM | –
COc1cc(-c2[nH]c3ccc(C4CCNCC4)nc3c2C(C)C)cn2ncnc12 [Example 520] | 7 nM | 0.8 nM | 0.285 µM | – | – | – | –
COc1cc(-c2[nH]c3ccc(N4CCN(C5CCC(O)CC5)CC4)nc3c2C(C)C)cn2ncnc12 (stereo not drawn) [Example 113] | – | – | – | 0.95 nM | 1.4 nM | 3.36 µM | –
